Experimental data from patent US11384142B2, “Combination therapy for the treatment of ovarian cancer” (Hoffmann-La Roche Inc., priority 2012, dated 2022).

B1: bevacizumab (antibody, V domains shown)
VH: EVQLVESGGGLVQPGGSLRLSCAASGYTFTNYGMNWVRQAPGKGLEWVGWINTYTGEPTYAADFKRRFTFSLDTSKSTAYLQMNSLRAEDTAVYYCAKYPHYYGSSHWYFDVWGQGTLVTVSS
VL: DIQMTQSPSSLSASVGDRVTITCSASQDISNYLNWYQQKPGKAPKVLIYFTSSLHSGVPSRFSGSGSGTDFTLTISSLQPEDFATYYCQQYSTVPWTFGQGTKVEIKR
modifications: amino acid sequence of humanized antibody variable heavy chain; amino acid sequence of humanized antibody variable light chain
notes: recombinant humanized anti-VEGF monoclonal antibody

Test system: platinum-resistant ovarian cancer (epithelial ovarian, fallopian tube or primary peritoneal cancer)
Test: AURELIA Phase III trial, efficacy (PFS by RECIST, ORR)
Type: in vivo, human
Conditions: for PFS Events, % / PFS Median, mo / ORR, %: by chemotherapy cohort; for ORR, %: overall response rate (RECIST and/or CA-125)
From the text: The AURELIA trial evaluated the efficacy and safety of bevacizumab in combination with chemotherapy for platinum-resistant ovarian cancer. This study was designed as a prospective, open-label, randomised, two-arm Phase III evaluation of bevacizumab plus chemotherapy versus chemotherapy alone. To be eligible, patients must have ovarian cancer that progressed within 6 months of previous platinum-based therapy. Paclitaxel, topotecan or pegylated liposomal doxorubicin (PLD) was selected as chemotherapeutic combination partners since they are commonly used for treatment of platinum-resistant disease. By adding bevacizumab to chemotherapy, the AURELIA trial aimed to improve PFS for this group of patients who have limited therapeutic options and face a particularly poor prognosis. The primary objective was to compare progression-free survival (PFS) of patients randomised to selected chemotherapy only or to selected chemotherapy plus bevacizumab.
Study Design—This trial consisted of two (2) treatment arms: chemotherapy-alone (Arm 1) and chemotherapy plus bevacizumab (Arm 2). Patients were randomly assigned (1:1) to either arm, see FIG. 1.
Eligible patients received one of the following chemotherapies on a 4-week cycle at the discretion of the investigator: • a. Paclitaxel 80 mg/m^2 as a 1-hour i.v. infusion on days 1, 8, 15 and 22 q4w. • b. Topotecan 4 mg/m^2 as a 30 minute i.v. infusion on days 1, 8 and 15 q4w. Alternatively, a 1.25 mg/m^2 dose can be administered over 30 minutes on days 1-5 every three weeks. • c. Pegylated liposomal doxorubicin 40 mg/m^2 as a 1 mg/min i.v. infusion on day 1 only, q4w. After cycle 1, the drug can be delivered as a 1 h infusion.
The chemotherapy was selected from one of those described in Arm 1 at the discretion of the investigator. The chosen chemotherapy was initially combined with bevacizumab 10 mg/kg i.v. every two weeks (or 15 mg/kg every three weeks if used in combination with topotecan 1.25 mg/m^2 on days 1-5 of a every three weeks schedule). The initial bevacizumab infusion was over 90 minutes, with subsequent infusions over 60 minutes and then 30 minutes, as tolerated. Bevacizumab was administered before the chemotherapy at the first cycle and then administered prior or after the chemotherapy at subsequent cycles. In case chemotherapy was completed before diagnosis of progressive disease, patients continued to receive bevacizumab as either: (a) 10 mg/kg i.v. every two weeks; or (b) 15 mg/kg every three weeks if topotecan was selected and administered at a dose of 1.25 mg/m^2 on days 1-5 of a every three weeks schedule. After disease progression, patients received standard of care treatment.
Analyses of PFS and ORR was based on tumour assessments (based on RECIST criteria) using cross sectional imaging (preferably by CT or MRI in case of contrast allergy) of the pelvis and abdomen and (by X-ray or preferably by CT-scan) of the chest. The same assessment technique was used throughout the study to evaluate a particular lesion.
Tumour assessments were performed at baseline then every 8 weeks (every 9 weeks for patients treated with 1.25 mg/m^2 topotecan on days 1-5 of a every three weeks cycle). Responses were confirmed by a second CT scan performed not earlier than 4 weeks after the criteria for response were first met.
Progressive serial elevation of serum CA-125 were used to determine CA-125 response and biological progression-free interval (PFIbio). Overall survival was measured from the date of randomisation to the date of death from any cause.
Eligible patients had ovarian cancer (measurable by RECIST 1.0 or assessable) that had progressed ≤6 mo after ≥4 cycles of platinum-based therapy. Patients with refractory ovarian cancer, history of bowel obstruction or >2 prior anticancer regimens were ineligible. […]

| Molecule | PFS Events, % [%] | PFS Median, mo [mo] | ORR, % [%] | overall response rate (ORR) by RECIST, CA-125 or both (FIG. 3) (bevacizumab added to chemotherapy vs chemotherapy alone) |
| --- | --- | --- | --- | --- |
| CC(=O)O[C@H]1C(=O)[C@@]2(C)[C@H]([C@H](OC(=O)c3ccccc3)[C@]3(O)C[C@H](OC(=O)[C@H](O)[C@@H](NC(=O)c4ccccc4)c4ccccc4)C(C)=C1C3(C)C)[C@]1(OC(C)=O)CO[C@@H]1C[C@@H]2O [PAC CT, paclitaxel] | 89 | 3.9 | 28.8 | – |
| CC[C@@]1(O)C(=O)OCc2c1cc1n(c2=O)Cc2cc3c(CN(C)C)c(O)ccc3nc2-1 [TOP CT, topotecan] | 89 | 2.1 | 3.3 | – |
| B1 | – | – | – | increased the overall response rate (ORR) |
